Patent US10053476B2, “Phosphohistidine and phosphotyrosine analogues” (UNIVERSITY OF SHEFFIELD, priority 2013, dated 2018)

Tests used:
[1] = tested on: polyclonal sera raised against 4-phosphopyrazol-1-yl alanine; test: Dot blot of BSA-glutaraldehyde conjugated analogues with affinity depleted rabbit and rat sera; assay type: binding; conditions: BSA-glutaraldehyde conjugated analogue; rabbit and rat sera affinity depleted with histidine-KLH
Protocol: Solutions of the BSA-amino acid conjugates of histidine, tele-phosphohistidine, and the analogues, were first diluted 1000 fold. These solutions as well as the commercially available solutions of BSA conjugated to phosphoserine, phosphothreonine, and phosphotyrosine were spotted (2 μL) onto a PVDF membrane. Once the spots were dry, the membrane was rinsed with methanol before being blocked in 5% non-fat dry milk in 10 mM Tris-HCl pH 8.0, 17 mM NaCl (TBS), Tween (0.05%) (5% NFDM/TBST) for 1 hour and then incubated with the rat sera raised against the analogue of interest at 1/1000 dilution in 5% NFDM/TBST overnight at 4° C. The membrane was then washed using TBS-Tween (0.05%) 3 times for 15 minutes, before being incubated with a 1/2000 fold dilution of goat anti-rat IgG-HRP conjugate in 5% NFDM/TBST for 60 minutes at room temperature. Membranes were then washed 3 times for 15 minutes using TBS-Tween (0.05%) and then treated with SuperSignal West Dura Chemiluminescent Substrate for 3 minutes. […]
In addition, further antibodies against 4-phosphopyrazol-1-yl alanine were raised as described in sections 2.1.1 to 2.1.4 above, and dot blot analysis conducted as described in section 2.5. […] The data establishes that 4-phosphopyrazol-1-yl alanine amide and 4-phosphothiazol-1-yl alanine amide are detected by the polyclonal sera raised against 4-phosphopyrazol-1-yl alanine.

SMILES | melting point | detection by polyclonal sera raised against 4-phosphopyrazol-1-yl alanine (dot blot) [1]
C[C@H](N[SH]1C=NC(P(=O)(O)O)=C1)C(N)=O (some centres unmarked) [4-phosphothiazol-1-yl alanine amide] |  | detected
N[C@@H](Cc1ccc(P(=O)(O)O)cn1)C(=O)O [Compound 6] | 270 °C | 
N[C@@H](Cc1ncc(P(=O)(O)O)s1)C(=O)O [Compound 20, (S)-2-Amino-3-(5-phosphoryl-1,3-thiazol-2-yl)propanoic acid] | 196 to 199 °C (dec.) | 

More lines, main results first:

melting point | SMILES | detection by polyclonal sera raised against 4-phosphopyrazol-1-yl alanine (dot blot) [1]
200 °C | N[C@@H](Cn1cc(P(=O)(O)O)cn1)C(=O)O [Compound 12] | 
260 °C | N[C@@H](Cc1cc(P(=O)(O)O)cs1)C(=O)O [Compound 17] | 
